In US9986740B2, “Methods of identifying insect-TRPA1 modulators” (BRANDEIS UNIVERSITY, priority 2010, dated 2018):

Legend:
[1] = target: T1, Painless (Drosophila melanogaster, UniProt Q9W0Y6); experiment: Larval neuromuscular junction electrophysiology, Painless expressed in motor neurons; assay type: cell-based; conditions: 500 μM, third instar larval muscles
T1 sequence (Q9W0Y6 1-913): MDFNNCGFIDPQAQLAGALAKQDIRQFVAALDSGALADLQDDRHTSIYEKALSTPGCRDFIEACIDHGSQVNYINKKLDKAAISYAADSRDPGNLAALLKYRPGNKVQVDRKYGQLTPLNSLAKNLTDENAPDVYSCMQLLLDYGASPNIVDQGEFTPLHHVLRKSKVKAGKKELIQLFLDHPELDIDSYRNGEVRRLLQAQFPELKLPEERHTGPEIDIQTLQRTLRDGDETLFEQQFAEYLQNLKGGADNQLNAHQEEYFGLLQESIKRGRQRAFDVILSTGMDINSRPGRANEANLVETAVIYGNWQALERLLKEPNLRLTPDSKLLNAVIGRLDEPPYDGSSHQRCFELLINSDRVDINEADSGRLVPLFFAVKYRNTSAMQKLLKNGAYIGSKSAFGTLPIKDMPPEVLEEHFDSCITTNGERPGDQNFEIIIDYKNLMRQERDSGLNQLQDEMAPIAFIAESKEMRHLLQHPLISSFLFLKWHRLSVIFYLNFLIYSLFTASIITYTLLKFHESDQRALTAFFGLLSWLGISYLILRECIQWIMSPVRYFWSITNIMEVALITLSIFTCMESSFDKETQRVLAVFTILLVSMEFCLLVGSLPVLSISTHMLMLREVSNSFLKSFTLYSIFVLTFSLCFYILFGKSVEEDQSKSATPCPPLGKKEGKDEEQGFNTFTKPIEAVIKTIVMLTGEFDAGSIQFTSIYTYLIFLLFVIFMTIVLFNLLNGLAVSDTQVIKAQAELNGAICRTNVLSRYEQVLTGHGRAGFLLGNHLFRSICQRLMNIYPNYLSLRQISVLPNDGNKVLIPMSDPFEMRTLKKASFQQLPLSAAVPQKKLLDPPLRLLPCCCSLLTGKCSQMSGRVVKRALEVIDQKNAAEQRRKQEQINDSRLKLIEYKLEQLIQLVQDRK

[2] = test system: Drosophila flies; experiment: Proboscis extension response (PER) behavioral assay; assay type: in vivo, Drosophila melanogaster
[3] = target: T2, dTRPA1 (Drosophila melanogaster, UniProt Q7Z020); experiment: Larval neuromuscular junction electrophysiology, dTRPA1 expressed in motor neurons; assay type: cell-based; conditions: third instar larval muscles
T2 sequence (Q7Z020 1-1197): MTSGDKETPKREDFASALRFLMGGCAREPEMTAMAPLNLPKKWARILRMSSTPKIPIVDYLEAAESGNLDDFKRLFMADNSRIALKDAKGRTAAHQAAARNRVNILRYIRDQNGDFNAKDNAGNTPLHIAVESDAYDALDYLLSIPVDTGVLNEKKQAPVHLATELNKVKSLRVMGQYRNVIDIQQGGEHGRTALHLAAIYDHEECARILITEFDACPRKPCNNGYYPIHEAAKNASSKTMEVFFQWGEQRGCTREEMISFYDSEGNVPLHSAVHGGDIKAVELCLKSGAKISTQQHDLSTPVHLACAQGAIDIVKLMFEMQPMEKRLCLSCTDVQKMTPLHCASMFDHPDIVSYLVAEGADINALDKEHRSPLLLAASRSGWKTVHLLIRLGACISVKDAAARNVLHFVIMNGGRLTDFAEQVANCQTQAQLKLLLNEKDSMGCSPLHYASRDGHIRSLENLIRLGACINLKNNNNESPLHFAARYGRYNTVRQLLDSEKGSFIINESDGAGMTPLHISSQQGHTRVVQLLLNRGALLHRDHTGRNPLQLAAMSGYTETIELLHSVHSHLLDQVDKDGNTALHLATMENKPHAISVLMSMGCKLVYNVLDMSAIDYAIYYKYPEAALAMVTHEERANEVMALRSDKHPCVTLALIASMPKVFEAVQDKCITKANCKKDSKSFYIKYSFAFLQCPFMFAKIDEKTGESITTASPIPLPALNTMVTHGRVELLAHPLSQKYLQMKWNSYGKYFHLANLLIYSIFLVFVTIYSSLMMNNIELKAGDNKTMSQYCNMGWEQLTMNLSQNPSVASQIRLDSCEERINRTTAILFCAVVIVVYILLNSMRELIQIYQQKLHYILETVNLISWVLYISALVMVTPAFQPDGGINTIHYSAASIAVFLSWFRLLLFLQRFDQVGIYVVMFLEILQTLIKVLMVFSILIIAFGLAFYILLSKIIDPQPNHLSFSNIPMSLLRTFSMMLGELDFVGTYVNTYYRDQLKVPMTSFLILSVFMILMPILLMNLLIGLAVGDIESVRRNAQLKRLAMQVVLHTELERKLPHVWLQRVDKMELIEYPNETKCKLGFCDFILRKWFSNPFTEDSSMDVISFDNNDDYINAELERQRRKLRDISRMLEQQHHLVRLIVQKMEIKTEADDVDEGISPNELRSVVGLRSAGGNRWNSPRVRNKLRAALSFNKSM

[4] = test system: uninjected oocytes; experiment: Two-electrode voltage clamping on uninjected oocytes; assay type: cell-based, Xenopus laevis; conditions: 3 mM AITC, 1 mM CA, 0.1 mM NMM

## O=CC=Cc1ccccc1 [CA, cinnamaldehyde]
[1]
  Induction of EJPs in OK371>Painless animals: does not induce
[2]; dTrpA1 loss-of-function mutants, ingestion permitted
  Effect on PER in dTrpA1 loss-of-function mutants: no reduction
[2]; first of five tastant offerings
  Acceptance on first offering: usually accepted
[2]; wild type flies, ingestion permitted, 350 mM sucrose with 2 mM AITC, 10 mM NMM or 6 mM CA
  Effect on proboscis extension response (PER) / feeding: robustly inhibited
[3]
  Excitatory junction potentials (EJPs) driven by dTRPA1-expressing motor neurons: cinnamaldehyde-responsive
[4]
  Response of uninjected oocytes: did not respond
